What was measured:
OAT1 = system: T1, OAT1; assay: Substrate specificity / uptake in HEK293-OAT1 cells; format: in vitro ADME; settings: for Substrate for OAT1: HEK293-OAT1 vs mock, ± 20 μM probenecid
T1 construct: host or cells: HEK293
Protocol: HEK293-mock cells and HEK293 cells overexpressing OAT1 and OAT3 transporters (HEK293-OAT1 and -OAT3, respectively) were seeded in poly-D-lysine-coated 24-well plates at a density of 4 × 10^5 cells/well and cultured for 24 h in DMEM supplemented with 10% FBS and 5 mM non-essential amino acids at 37 °C in 8% CO2 condition.
For each experiment, the growth medium was discarded after 24 h, and the attached cells were washed with pre-warmed HBSS and incubated with pre-warmed HBSS for 20 min at 37 °C. To confirm the functionality of OAT1 and OAT3, we measured the uptake of 0.1 µM [^3H]PAH and 0.1 µM [^3H]ES, representative substrates for OAT1 and OAT3, respectively, into in the HEK293-mock cells and HEK293-OAT1 and -OAT3 cells, respectively, for 5 min in the presence and absence of 20 µM probenecid, a typical inhibitor for both OAT1 and OAT3 [8, 9]. The cells were then washed three times with 500 μL of ice-cold HBSS immediately after placing the plates on ice. Subsequently, cells were lysed with 10% sodium dodecyl sulfate and mixed with Optiphase cocktail solution overnight. The radioactivity of the cell lysate was measured using a liquid scintillation counter (Microbeta 2; Perkin Elmer Inc., Boston, MA, USA).
For the concentration dependency in the uptake of DWP16001, the uptake of DWP16001 in a concentration range of 0.5–50 μM dissolved in HBSS was measured for 5 min at 37 °C in the mock cells and HEK293-OAT1 and -OAT3 cells, respectively. After 5 min, the cells were washed three times with 500 μL of ice-cold HBSS immediately after placing the plates on ice.
In the concentration-dependent uptake studies, the transporter-mediated uptake of DWP16001 was calculated by the subtraction of the transport rates of DWP16001 into the mock cells from those of the HEK293-OAT1 and -OAT3 cells. Kinetic parameters for the OAT1- and OAT3-mediated transport of DWP16001 were determined using the Michaelis-Menten equation [V = Vmax⋅S/(Km + S)] [10].

SGLT1 = biological target: T2, SGLT1 (Homo sapiens, UniProt P13866); assay: Inhibition of [14C]AMG uptake in CHO-SGLT1 cells; format: cell-based; settings: 10 μM [14C]AMG uptake, 2 h, CHO-SGLT1 minus mock; mean ± SD, triplicate
T2 construct: host or cells: CHO
T2 sequence (P13866 1-664): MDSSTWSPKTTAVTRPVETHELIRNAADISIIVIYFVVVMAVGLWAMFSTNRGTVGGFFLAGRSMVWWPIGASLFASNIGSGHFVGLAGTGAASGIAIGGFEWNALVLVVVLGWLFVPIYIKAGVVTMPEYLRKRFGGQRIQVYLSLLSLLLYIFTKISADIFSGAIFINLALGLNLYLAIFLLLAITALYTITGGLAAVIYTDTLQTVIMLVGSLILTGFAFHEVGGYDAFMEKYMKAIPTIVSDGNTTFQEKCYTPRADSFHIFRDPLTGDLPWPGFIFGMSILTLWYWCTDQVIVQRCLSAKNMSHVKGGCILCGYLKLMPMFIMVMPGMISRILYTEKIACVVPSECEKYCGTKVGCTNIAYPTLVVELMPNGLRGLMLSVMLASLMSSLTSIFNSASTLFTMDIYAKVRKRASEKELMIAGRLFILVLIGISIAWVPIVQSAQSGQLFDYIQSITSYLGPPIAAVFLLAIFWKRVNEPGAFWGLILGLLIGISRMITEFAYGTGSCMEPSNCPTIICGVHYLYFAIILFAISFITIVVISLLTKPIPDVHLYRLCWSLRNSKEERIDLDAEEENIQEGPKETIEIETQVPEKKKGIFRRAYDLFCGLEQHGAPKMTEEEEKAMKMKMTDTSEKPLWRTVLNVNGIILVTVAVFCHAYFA
Protocol: CHO cells overexpressing SGLT1 and SGLT2 cells (CHO-SGLT1 and -SGLT2) and CHO-mock cells were characterized as previously described. Cells were maintained in RPMI1640 medium supplemented with 10% fetal bovine serum and 200 µg/mL G418 at 37 °C in 5% CO2 conditions. CHO-SGLT1 and -SGLT2 cells were seeded at a density of 1 × 10^5 cells/well in 96-well plates. After 24 h, the growth medium was discarded from the cells, and the cells were washed with pre-warmed Na^+-free buffer (10 mM HEPES, 5 mM Tris, 140 mM choline chloride, 2 mM KCl, 1 mM CaCl2, 1 mM MgCl2, pH7.4) and incubated for 1 h in Na^+-free buffer. After replacing Na^+-free buffer with Na^+ gradient buffer (10 mM HEPES, 5 mM Tris, 140 mM NaCl, 2 mM KCl, 1 mM CaCl2, 1 mM MgCl2, pH7.4) containing 10 µM [^14C]AMG, the uptake of [^14C]AMG into the CHO-mock cells and CHO-SGLT1 and -SLGT2 cells was measured for 0.5, 1, 1.5, 2, and 3 h. After a predetermined incubation time, cells were washed three times with 200 µL of ice-cold Na^+-free buffer immediately after placing the plates on ice. Then, the cells were lysed with 10% SDS, and the cell lysates were mixed with Optiphase cocktail solution. Thereafter, the radioactivity of the cell lysates was measured using a liquid scintillation counter.
After 2 h, cells were washed three times with 200 µL of ice-cold Na^+-free buffer and the cells were lysed with 10% SDS (40 µL), followed by adding Optiphase cocktail solution (200 µL). The radioactivity of the cell lysates was measured using a liquid scintillation counter. The SGLT1 or SGLT2-mediated uptake of [^14C]AMG was calculated by the subtraction of the uptake rates of [^14C]AMG into the mock cells from those of the CHO-SGLT1 and -SLGT2 cells. In the inhibition studies, the percentages of the transport rate of AMG with or without SGLT2 inhibitors were calculated and the data were fitted to an inhibitory effect model. The IC50 (the concentration of the inhibitor to show half-maximal inhibition) values were calculated using Sigma Plot ver.10.0 (Systat Software, Inc.; San Jose, CA, USA).

[1] = HEK293-OAT1 minus mock, 0.5–50 μM, 5 min

| Structure (SMILES) | Substrate for OAT1 (OAT1; 2 μM, 5 min) | IC50 (SGLT1) [µM] | Increase of uptake in HEK293-OAT1 cells compared with mock cells (OAT1; 2 μM, 5 min) | OAT1-mediated uptake: CLint (OAT1; [1]) [µL/min] | OAT1-mediated uptake: Vmax (OAT1; [1]) [pmol/min] | Km at 5 min (OAT1; human, HEK293-OAT1 minus mock, 0.5–50 μM, read-out: OAT1-mediated uptake: Km) [µM] |
| --- | --- | --- | --- | --- | --- | --- |
| OC[C@H]1O[C@@H](c2ccc(F)c(Cc3cc4ccccc4s3)c2)[C@H](O)[C@@H](O)[C@@H]1O [Ipragliflozin, ipragliflozin] | not substrates | 2.33 ± 0.378 |  |  |  |  |
| OC[C@H]1O[C@@H](c2cc(Cc3ccc(C4CC4)cc3)c(Cl)c3c2CCO3)[C@H](O)[C@@H](O)[C@@H]1O [DWP16001] | a substrate | 0.549 ± 0.14 | two-fold | 3.1 | 119.2 | 38 |

Reference: publication PMC7151106 (Pharmaceutics, 2020)
